Data from patent US9566344B2, “Dasatinib and nonlinear configuration polyethylene glycol conjugate” (priority 2013, dated 2017).
Several values for one entry are separate records, joined by “and”; a condition that tells them apart may be missing. Equal values may be shown once.

What was measured:
[1] = test system: K562 human chronic myeloid leukemia subcutaneous xenograft; test: Antitumor effect in subcutaneous tumor model of K562 human chronic myeloid leukemia; type: in vivo, NOD/SCID mice
Description: K562 cells were inoculated subcutaneously on the right back of NOD/SCID mice to establish human chronic myeloid leukemia subcutaneous xenograft animal model. When the mean tumor volume reached 130 mm^3, the mice used in the experiment were divided into groups and there were 8 mice in each group, then the mice were injected intravenously twice a week. The therapeutic efficiency was evaluated based on the relative tumor proliferation rate (T/C %).
K562 cell line was cultured in vitro in RPMI-1640 medium supplemented with fetal bovine serum with a volume ratio of 10% and L-glutamine (2 mM) at 37 with the air containing CO2 with a proportion of 5%. The tumor cells were routinely passaged twice a week. The tumor cells in the exponential growth phase were collected and suspended in the mixture formed by PBS and matirgel with an equal volume, and then placed on ice for inoculation of tumor cells.
5×10^6 of K562 cells were inoculated subcutaneously on the right back of the mice used in the experiment, the tumor growth was observed regularly, and stochastic grouping of the mice according to tumor size and body weight in mice and pharmacotherapy were carried out when the mean volume of the tumor reached 130 mm^3.
In this study all the operations related to operating, nursing and treatment were undertaken according to the handbook approved by Association for Assessment and Accreditation of Laboratory Animal Care (AAALAC). […] In everyday observation, the influence of tumor growth on animal normal behaviors (such as exercise, eating, drinking, change of weight, eyes, hair) and any other abnormalities were noticed. Death and clinical symptoms of animals in each group were recorded.
Throughout the experiment, the weight and tumor size of mice were measured twice a week. The computational formula of tumor size was as follows: tumor volume (mm^3)=0.5×(long diameter of tumor x short diameter of tumor^2). According to the tumor size in experimental groups and control group, RTV and T/C ratio were calculated. RTV is the relative tumor volume. T/C ratio is the percentage ratio of relative tumor volumes in the treatment group and the control group at a time point after finish of treatment, and reflects the antitumor pharmacodynamic actions of the different treatment groups.

[2] = test system: PC-3 human prostate cancer subcutaneous xenograft; test: Pharmacodynamics in subcutaneous tumor model of PC-3 human prostate cancer; type: in vivo, Balb/c nude mice; conditions: PC-3 xenograft; for T/C (%) relative tumor proliferation rate / Relative tumor volume (x ± SE) / Tumor volume (x ± SE) / Effect on tumor growth compared with the solvent control group (in words): 10 mg/kg; for Effect on tumor growth compared with the solvent control group (in words): p values less than 0.01; for Anti-tumor effect compared with dasatinib (in words): same dose 10 mg/kg, 25th day
Description: PC-3 cells were inoculated subcutaneously on the right back of Balb/c nude mice to establish human prostate cancer subcutaneous xenograft animal model. When the mean tumor volume reached 160 mm^3, the mice used in the experiment were divided into groups and there were 8 mice in each group, the mice were injected intravenously twice a week. The therapeutic efficiency was evaluated based on the relative tumor proliferation rate (T/C %).
PC-3 cell line was cultured in vitro in Ham's F12K medium supplemented with fetal bovine serum with a volume ratio of 10% and L-glutamine (2 mM) at 37 with the air containing CO2 with a proportion of 5%, the tumor cells were routinely passaged twice a week. The tumor cells in the exponential growth phase were collected and suspended in the mixture formed by PBS and matirgel with an equal volume, and then placed on ice for inoculation of tumor cells.
5×10^6 of PC-3 cells were inoculated subcutaneously on the right back of the mice used in the experiment, the tumor growth weas observed regularly, and stochastic grouping of the mice according to tumor size and body weight in mice and pharmacotherapy were carried out when the mean volume of the tumor reached 160 mm^3.
In this study all the operations related to operating, nursing and treatment were undertaken according to the handbook approved by Association for Assessment and Accreditation of Laboratory Animal Care (AAALAC). […] In everyday observation, the influence of tumor growth on normal animal behaviors (such as exercise, eating, drinking, change of weight, eyes, hair) and any other abnormalities were noticed. Death and clinical symptoms of animals in each group were recorded.
Throughout the experiment, the weight and tumor size of mice were measured twice a week. The computational formula of tumor size was as follows: tumor volume (mm^3)=0.5×(long diameter of tumor×short diameter of tumor^2). According to the tumor size in experimental groups and control group, RTV and T/C ratio were calculated. RTV is the relative tumor volume. T/C ratio is the percentage ratio of relative tumor volumes in the treatment groups and the control group at a time point after finish of treatment, and reflects the antitumor pharmacodynamic actions of the different treatment groups. When the experiment was finished, the tumors were recorded by photographs in the following two ways: 1. the animals in each group were euthanized by CO2, and the tumor-bearing sides were placed upwards and taken photographs for recording by group; 2. the tumors were removed and weighed first, and T/C values (percentage ratio of tumor weights in treatment groups and the control group) were calculated, and then tumors in each group were placed in order at the same time and taken photographs for recording.

[3] = 5 mg/kg, 14th day after grouping, compared with the solvent control group
[4] = 5 mg/kg, 21st day after grouping, compared with the group using dasatinib
[5] = 5 mg/kg, i.v. twice a week, 14th day after grouping
[6] = 5 mg/kg, i.v. twice a week, 21st day after grouping
[7] = 5 mg/kg, i.v. twice a week, 21st day after grouping, 5 mg/kg
[8] = 5 mg/kg, injected intravenously twice a week, 14th day after grouping, 5 mg/kg
[9] = 5 mg/kg, p values less than 0.001
[10] = 22nd day after grouping, compared with the solvent control group
[11] = 25th day after grouping, compared with the group using dasatinib
[12] = i.v. twice a week, 22nd day after grouping
[13] = i.v. twice a week, 25th day after grouping
[14] = injected intravenously twice a week, 22nd day after grouping
[15] = 5 mg/kg, 21st day after grouping, compared with the group using dasatinib, 5 mg/kg

| Compound | T/C (%) relative tumor proliferation rate [1, 3] [%] | T/C (%) relative tumor proliferation rate [1, 4] [%] | Relative tumor volume (x ± SE) [1, 5] | Relative tumor volume (x ± SE) [1, 6] | Tumor volume (x ± SE) [1, 7] | Tumor volume (x ± SE) [1, 8] | Effect on tumor growth compared with the solvent control group (in words) [1, 9] | Anti-tumor effect compared with dasatinib (in words) ([1]; same dose 5 mg/kg, 21st day) | T/C (%) relative tumor proliferation rate [2, 10] [%] | T/C (%) relative tumor proliferation rate [2, 11] [%] | Relative tumor volume (x ± SE) [2, 12] | Relative tumor volume (x ± SE) [2, 13] | Tumor volume (x ± SE) [2, 13] | Tumor volume (x ± SE) [2, 14] | Effect on tumor growth compared with the solvent control group (in words) [2] | Anti-tumor effect compared with dasatinib (in words) [2] | T/C (%) relative tumor proliferation rate [1, 15] [%] |
| --- | --- | --- | --- | --- | --- | --- | --- | --- | --- | --- | --- | --- | --- | --- | --- | --- | --- |
| ^20k4arm -PEG-OCH2CH2ODS [DSN-1] | 14 | 96 | 254.6 ± 42.2 | 277.5 ± 32.2 | 375 mm^3 and 375 ± 89 mm^3 | 349 mm^3 and 349 ± 76 mm^3 | statistically significant effect of anti-K562 tumor growth | no statistically significant differences | 67 | 79 | 1053.2 ± 107.4 | 975.6 ± 103.5 | 1476 mm^3 and 1476 ± 118 mm^3 | 1649 mm^3 and 1649 ± 142 mm^3 | statistically significant effect of anti-PC-3 tumor growth | more significant | – |
| Cc1nc(Nc2ncc(C(=O)Nc3c(C)cccc3Cl)s2)cc(N2CCN(CCO)CC2)n1 [dasatinib] | 12.4 | – | 226.9 ± 30.0 | 289.1 ± 46.9 | 391 mm^3 and 391 ± 79 mm^3 | 311 mm^3 and 311 ± 55 mm^3 | statistically significant effect of anti-K562 tumor growth | – | 73 | – | 1148.9 ± 112.7 | 1235.3 ± 119.6 | 1868 mm^3 and 1868 ± 76 mm^3 | 1752 mm^3 and 1752 ± 76 mm^3 | statistically significant effect of anti-PC-3 tumor growth | – | – |
| ^20k4arm -PEG-OCH2COODS [DSN-2] | 16 | 121 | 282.1 ± 46.3 | 350.3 ± 71.9 | 462 mm^3 and 462 ± 114 mm^3 | 372 mm^3 and 372 ± 80 mm^3 | statistically significant effect of anti-K562 tumor growth | no statistically significant differences | 71 | 88 | 1116.1 ± 98.2 | 1087.1 ± 88.2 | 1644 mm^3 and 1644 ± 146 mm^3 | 1748 mm^3 and 1748 ± 146 mm^3 | statistically significant effect of anti-PC-3 tumor growth | no statistically significant difference | – |
| ^20k4arm-PEG-OCH2CH2NHCOODS [DSN-4] | 8.5 | – | 155.5 ± 28.5 | 161.8 ± 18.9 | 219 mm^3 and 219 ± 45 mm^3 | 210 mm^3 and 210 ± 47 mm^3 | statistically significant effect of anti-K562 tumor growth | more significant | 48 | 63 | 754.6 ± 84.5 | 778.1 ± 82.4 | 1177 mm^3 and 1177 ± 120 mm^3 | 1182 mm^3 and 1182 ± 68 mm^3 | statistically significant effect of anti-PC-3 tumor growth | more significant | 36 |
| ^20k4arm -PEG-OCH2CH2OCOODS [DSN-3] | 11.8 | – | 215.4 ± 41.1 | 208 ± 37.6 | 281 mm^3 and 281 ± 56 mm^3 | 295 mm^3 and 295 ± 68 mm^3 | statistically significant effect of anti-K562 tumor growth | more significant | 59 | 70 | 927.5 ± 96.3 | 864.7 ± 74.5 | 1307 mm^3 and 1307 ± 155 mm^3 | 1452 mm^3 and 1452 ± 139 mm^3 | statistically significant effect of anti-PC-3 tumor growth | more significant | 42 |
